Data taken from patent publication US20250134109A1, “Antimicrobial, Antiviral and Antifungal Articles and Methods of Producing Such Articles” (Cupron, Inc., priority 2021, published 2025).

Assay: Copper ion release from 1.0μ particles of various copper compounds over exposure cycles
Format: physicochemical
Source text: In many embodiments, it is possible to provide ion release rates that are tailored to the specific application. For example, embodiments include articles that comprise first particles having a first ion release rate and second particles having a second ion release rate.
The ion release rates listed may be considered to be an average ion release rate of a plurality of particles or powder having an average particle size of 1 micron also. […]

Compound	number of exposures in which copper ions are released into a fluid (as shown in Table 1)	Copper ion release from 1.0μ particles (exposure cycle 0)	Copper ion release from 1.0μ particles (exposure cycle 5)	Copper ion release from 1.0μ particles (exposure cycle 10)	Copper ion release from 1.0μ particles (exposure cycle 15)	Copper ion release from 1.0μ particles (exposure cycle 20)	Copper ion release from 1.0μ particles (exposure cycle 25)	Copper ion release from 1.0μ particles (exposure cycle 30)	Copper ion release from 1.0μ particles (exposure cycle 35)	Copper ion release from 1.0μ particles (exposure cycle 40)	Copper ion release from 1.0μ particles (exposure cycle 45)	Copper ion release from 1.0μ particles (exposure cycle 50)
O=S(=O)([O-])[O-].[Cu+2] [CuSO4, copper sulfate]	less than five exposures	100.0 ppm	0.0 ppm	0.0 ppm	0.0 ppm	0.0 ppm	0.0 ppm	0.0 ppm	0.0 ppm	0.0 ppm	0.0 ppm	0.0 ppm
[Cu+].[I-] [Cul, cuprous iodide]		6.0 ppm	3.0 ppm	1.5 ppm	0.7 ppm	0.4 ppm	0.2 ppm	0.1 ppm	0.0 ppm	0.0 ppm	0.0 ppm	0.0 ppm
copper sulfide [Cu2S]		0.5 ppm	0.5 ppm	0.5 ppm	0.5 ppm	0.5 ppm	0.5 ppm	0.5 ppm	0.5 ppm	0.5 ppm	0.5 ppm	0.5 ppm
cuprous thiocyanate [CuSCN]		4.0 ppm	2.7 ppm	1.8 ppm	1.3 ppm	0.9 ppm	0.6 ppm	0.4 ppm	0.3 ppm	0.2 ppm	0.1 ppm	0.0 ppm
